# Data published in ChEMBL document CHEMBL1121820, “Synthesis and antitumor activity of simple vinyl and alpha-methylene-gamma-butyrolactone sulfonate esters and silyl enol ethers” (1981).
# Key:
# P388 [1] = experiment: Compound was studied in P388 test system for the antitumor activity expressed as percent maximum life span of animals at a dose of 100 mg/kg; format: functional; details: Mus musculus
# P388 [2] = experiment: Compound was studied in P388 test system for the antitumor activity expressed as number of animals survived/Number of animals tested at a dose of 100 mg/kg; 6/6; format: functional, Mus musculus
# P388 [3] = experiment: Compound was studied in P388 test system for the antitumor activity expressed as percent maximum life span of animals at a dose of 50 mg/kg; format: functional; details: Mus musculus
# P388 [4] = experiment: Compound was studied in P388 test system for the antitumor activity expressed as number of animals survived/Number of animals tested at a dose of 50 mg/kg; 6/6; format: functional, Mus musculus
# P388 [5] = experiment: Compound was studied in P388 test system for the antitumor activity expressed as percent maximum life span of animals at a dose of 200 mg/kg; format: functional; details: Mus musculus
# P388 [6] = experiment: Compound was studied in P388 test system for the antitumor activity expressed as number of animals survived/Number of animals tested at a dose of 200 mg/kg; 6/6; format: functional, Mus musculus
# P388 [7] = experiment: Compound was studied in P388 test system for the antitumor activity expressed as percent maximum life span of animals at a dose of 400 mg/kg; format: functional; details: Mus musculus
# P388 [8] = experiment: Compound was studied in P388 test system for the antitumor activity expressed as number of animals survived/Number of animals tested at a dose of 400 mg/kg; 5/5; format: functional, Mus musculus
# P388 [9] = experiment: Compound was studied in P388 test system for the antitumor activity expressed as number of animals survived/Number of animals tested at a dose of 100 mg/kg; 5/6; format: functional, Mus musculus
# L1210 [10] = experiment: Compound was studied in L1210 leukemia test system for the antitumor activity expressed as percent maximum life span of animals at dose of 25 mg/kg; format: functional; details: Mus musculus
# L1210 [11] = experiment: Compound was studied in L1210 leukemia test system for the antitumor activity expressed as number animals survived/Number of animals tested at dose of 25 mg/kg; 5/6; format: functional, Mus musculus
# P388 [12] = experiment: Compound was studied in P388 test system for the antitumor activity expressed as percent maximum life span of animals at dose of 37.5 mg/kg; format: functional; details: Mus musculus
# P388 [13] = experiment: Compound was studied in P388 test system for the antitumor activity expressed as number of animals survived/Number of animals tested at dose of 37.5 mg/kg; 6/6; format: functional, Mus musculus
# P388 [14] = experiment: Compound was studied in P388 test system for the antitumor activity expressed as number of animals survived/Number of animals tested at dose of 50 mg/kg; 6/6; format: functional, Mus musculus
# L1210 [15] = experiment: Compound was studied in L1210 leukemia test system for the antitumor activity expressed as percent maximum life span of animals at dose of 50 mg/kg; format: functional; details: Mus musculus
# L1210 [16] = experiment: Compound was studied in L1210 leukemia test system for the antitumor activity expressed as number animals survived/Number of animals tested at dose of 50 mg/kg; 6/6; format: functional, Mus musculus
# P388 [17] = experiment: Compound was studied in P388 test system for the antitumor activity expressed as percent maximum life span of animals at dose of 25 mg/kg; format: functional; details: Mus musculus
# P388 [18] = experiment: Compound was studied in P388 test system for the antitumor activity expressed as number of animals survived/Number of animals tested at dose of 25 mg/kg; 6/6; format: functional, Mus musculus
# L1210 [19] = experiment: Compound was studied in L1210 leukemia test system for the antitumor activity expressed as percent maximum life span of animals at dose of 200 mg/kg; format: functional; details: Mus musculus
# L1210 [20] = experiment: Compound was studied in L1210 leukemia test system for the antitumor activity expressed as number animals survived/Number of animals tested at dose of 200 mg/kg; 10/10; format: functional, Mus musculus
# Mus musculus [21] = experiment: Compound was studied in CD8F test system for the antitumor activity expressed as percent maximum life span of animals at dose of 25 mg/kg; format: functional
# Mus musculus [22] = experiment: Compound was studied in CD8F test system for the antitumor activity expressed as number of animals survived/Number of animals tested at dose of 25 mg/kg; 10/10
# L1210 [23] = experiment: Compound was studied in L1210 leukemia test system for the antitumor activity expressed as number animals survived/Number of animals tested at dose of 200 mg/kg; 6/6; format: functional, Mus musculus
# B16 [24] = experiment: Compound was studied in B16 test system for the antitumor activity expressed as percent maximum life span of animals at dose of 200 mg/kg; format: functional; details: Mus musculus
# B16 [25] = experiment: Compound was studied in B16 test system for the antitumor activity expressed as number of animals survived/Number of animals tested at dose of 200 mg/kg; […]; format: functional, Mus musculus
# L1210 [26] = experiment: Compound was studied in L1210 leukemia test system for the antitumor activity expressed as percent maximum life span of animals at dose of 400 mg/kg; format: functional; details: Mus musculus
# L1210 [27] = experiment: Compound was studied in L1210 leukemia test system for the antitumor activity expressed as number animals survived/Number of animals tested at dose of 400 mg/kg; 6/6; format: functional, Mus musculus
# [28] = tested on: Lewis lung carcinoma cell line; experiment: Compound was studied in LL test system for the antitumor activity expressed as number of animals survived/Number of animals tested at dose of 12.5 mg/kg; 10/10; format: functional, Mus musculus
# [29] = tested on: Lewis lung carcinoma cell line; experiment: Compound was studied in LL test system for the antitumor activity expressed as percent maximum life span of animals at dose of 12.5 mg/kg; format: functional; details: Mus musculus
# Mus musculus [30] = experiment: Compound was studied in CD8F test system for the antitumor activity expressed as percent maximum life span of animals at dose of 250 mg/kg; format: functional
# Mus musculus [31] = experiment: Compound was studied in CD8F test system for the antitumor activity expressed as number of animals survived/Number of animals tested at dose of 250 mg/kg; 10/10; format: functional
# P388 [32] = experiment: Compound was studied in P388 test system for the antitumor activity expressed as percent maximum life span of animals; format: functional, Mus musculus
# P388 [33] = experiment: Compound was studied in P388 test system for the antitumor activity expressed as number of animals survived/Number of animals tested at 200 mg/kg; 6/6; format: functional, Mus musculus
# L1210 [34] = experiment: Compound was studied in L1210 leukemia test system for the antitumor activity expressed as number of animals survived/Number of animals tested at dose of 25 mg/kg; 5/6; format: functional, Mus musculus
# P388 [35] = experiment: Compound was studied in P388 test system for the antitumor activity expressed as percent maximum life span of animals at dose of 50 mg/kg; format: functional; details: Mus musculus
# P388 [36] = experiment: Compound was studied in P388 test system for the antitumor activity expressed as number of animals survived/Number of animals tested at a dose of 200 mg/kg; 5/6; format: functional, Mus musculus
# L1210 [37] = experiment: Compound was studied in L1210 leukemia test system for the antitumor activity expressed as percent maximum life span of animals at dose of 22.5 mg/kg; format: functional; details: Mus musculus
# L1210 [38] = experiment: Compound was studied in L1210 leukemia test system for the antitumor activity expressed as number of animals survived/Number of animals tested at dose of 22.5 mg/kg; 6/6; format: functional, Mus musculus
# P388 [39] = experiment: Compound was studied in P388 test system for the antitumor activity expressed as percent maximum life span of animals at dose of 120 mg/kg; format: functional; details: Mus musculus
# P388 [40] = experiment: Compound was studied in P388 test system for the antitumor activity expressed as number of animals survived/Number of animals tested at dose of 120 mg/kg; 6/6; format: functional, Mus musculus
compound,measurement,setting,value
CC(C)=C(C)OS(=O)(=O)C(F)(F)F,ILS at 100 mg/kg,P388 [1],14%
same,Ratio,P388 [2],6
CC(C)=COS(=O)(=O)C(F)(F)F,ILS at 50 mg/kg,P388 [3],-1%
same,Ratio,P388 [4],6
CC(C)=CO[Si](C)(C)C,ILS at 200 mg/kg,P388 [5],14%
same,Ratio,P388 [6],6
O=S(=O)(OC1=CCCCCC1)C(F)(F)F,ILS at 400 mg/kg,P388 [7],15%
same,Ratio,P388 [8],5
C[Si](C)(C)OC=C1CCCCC1,ILS at 100 mg/kg,P388 [1],22%
same,Ratio,P388 [2],6
O=S(=O)(OC(=C(c1ccccc1)c1ccccc1)c1ccccc1)C(F)(F)F,ILS at 100 mg/kg,P388 [1],16%
same,Ratio,P388 [2],6
C/C(=C\O[Si](C)(C)C)c1ccccc1,ILS at 100 mg/kg,P388 [1],8%
same,Ratio,P388 [9],5
O=C1OCC/C1=C\OS(=O)(=O)C(F)(F)F,ILS at 25 mg/kg,L1210 [10],6%
same,Ratio,L1210 [11],5
same,ILS at 37.5 mg/kg,P388 [12],26%
same,Ratio,P388 [13],6
CCOC1=CC(=O)/C(=C/O[Si](C)(C)C)CC1,Ratio,P388 [14],6
CC1(C)CC(=O)C=C(OS(=O)(=O)C(F)(F)F)C1,ILS at 50 mg/kg,L1210 [15],3%
same,Ratio,L1210 [16],6
same,ILS at 25 mg/kg,P388 [17],12%
same,Ratio,P388 [18],6
C[Si](C)(C)O/C=C1\CCCCC1=O,ILS at 200 mg/kg,L1210 [19],5%
same,Ratio,L1210 [20],10
same,ILS at 25 mg/kg,Mus musculus [21],21%
same,Ratio,P388 [14],6
same,Ratio,Mus musculus [22],1
O=S(=O)(OC1=CCCCC1)C(F)(F)F,ILS at 50 mg/kg,P388 [3],14%
same,Ratio,P388 [4],6
O=C1O[C@@H]2CCCCC2/C1=C/OS(=O)(=O)C(F)(F)F (stereo partly specified),ILS at 200 mg/kg,L1210 [19],17%
same,Ratio,L1210 [23],6
C[Si](C)(C)O/C=C1\CCOC1=O,ILS at 200 mg/kg,B16 [24],6%
same,Ratio,B16 [25],10
same,ILS at 400 mg/kg,L1210 [26],12%
same,Ratio,L1210 [27],6
same,Ratio,[28],10
same,ILS at 12.5 mg/kg,[29],16%
same,ILS at 250 mg/kg,Mus musculus [30],42%
same,Ratio,Mus musculus [31],10
same,ILS,P388 [32],25%
same,Ratio,P388 [33],6
CS(=O)(=O)O/C=C1\CCOC1=O,ILS at 25 mg/kg,L1210 [10],6%
same,Ratio,L1210 [34],5
same,ILS at 50 mg/kg,P388 [35],32%
same,Ratio,P388 [14],6
O=S(=O)(OC=C1CCCCC1)C(F)(F)F,ILS at 200 mg/kg,P388 [5],12%
same,Ratio,P388 [36],5
CS(=O)(=O)O/C=C1\C(=O)O[C@@H]2CCCCC12 (stereo partly specified),ILS at 22.5 mg/kg,L1210 [37],11%
same,Ratio,L1210 [38],6
same,ILS at 120 mg/kg,P388 [39],25%
same,Ratio,P388 [40],6
O=S(=O)(O/C1=C/CCCCCC1)C(F)(F)F,ILS at 200 mg/kg,P388 [5],14%
same,ILS at 100 mg/kg,P388 [1],13%
same,Ratio,P388 [2],6
same,Ratio,P388 [36],5
